MIC data for 5 molecules are collected here from ChEMBL document CHEMBL1142144, “Semimechanistic pharmacokinetic/pharmacodynamic model for assessment of activity of antibacterial agents from time-kill curve experiments” (2007).

Converted amounts (≈) assume the structure as drawn.

This assay relates to Streptococcus pyogenes. The assay is described as follows: Antibacterial activity against Streptococcus pyogenes M12 by time-kill curve assay. It is filed as functional.

In turn, `CO/N=C(\C(=O)N[C@@H]1C(=O)N2C(C(=O)O)=C(COC(N)=O)CS[C@H]12)c1ccco1` [CEFUROXIME] returned a minimum inhibitory concentration (MIC) of 0.0313 µg/mL (≈ 0.0738 µM).
Consider `CC[C@H]1OC(=O)[C@H](C)[C@@H](O[C@H]2C[C@@](C)(OC)[C@@H](O)[C@H](C)O2)[C@H](C)[C@@H](O[C@@H]2O[C@H](C)C[C@H](N(C)C)[C@H]2O)[C@](C)(O)C[C@@H](C)C(=O)[C@H](C)[C@@H](O)[C@]1(C)O` [ERYTHROMYCIN], for which the minimum inhibitory concentration (MIC) worked out at 0.125 µg/mL (≈ 0.17 µM). Against the preceding molecule, the MIC is about 4-fold higher.
The result for `COc1c(N2C[C@@H]3CCCN[C@@H]3C2)c(F)cc2c(=O)c(C(=O)O)cn(C3CC3)c12` [MOXIFLOXACIN] reads 0.125 µg/mL (≈ 0.311 µM); that for `CC1(C)S[C@@H]2[C@H](NC(=O)Cc3ccccc3)C(=O)N2[C@H]1C(=O)O` [PENICILLIN G], 0.012 µg/mL (≈ 0.0359 µM); that for `CN[C@H](CC(C)C)C(=O)N[C@H]1C(=O)N[C@@H](CC(N)=O)C(=O)N[C@H]2C(=O)N[C@H]3C(=O)N[C@H](C(=O)N[C@H](C(=O)O)c4cc(O)cc(O)c4-c4cc3ccc4O)[C@H](O)c3ccc(c(Cl)c3)Oc3cc2cc(c3O[C@@H]2O[C@H](CO)[C@@H](O)[C@H](O)[C@H]2O[C@H]2C[C@](C)(N)[C@H](O)[C@H](C)O2)Oc2ccc(cc2Cl)[C@H]1O` [VANCOMYCIN], 0.25 µg/mL (≈ 0.173 µM).
